Results on 20 molecules are retold here after patent publication US5550124A, “Use of peripheral-type benzodiazpine sites for treatment of CNS trauma or disease” (priority 1991, dated 1996).

Entries after “also recorded” stand apart in the source; their conditions may differ. Where two headings read alike, the source gives them in different places.

In series [1] the test system is platelet aggregation. The following applies: cited from earlier work.
Series [2] deals with NMDA receptor. The note with it: in vivo; cited from earlier work.
For series [3], the system named is NMDA receptor. The following applies: cats; cited from earlier work.
For series [4] the following is noted: in vivo; cited from earlier work.
For series [5] the following is noted: dogs; cited from earlier work.
Series [6] has as its system NMDA receptor. The following applies: rats; cited from earlier work.
The conditions of series [7]: rats; cited from earlier work.
The conditions of series [8]: in vivo; cited from earlier work. This is another data set of the same source.
For series [9] the following is noted: in vivo; cited from earlier work. The source holds these as a separate data set.
Series [10] in a line: Physical trauma (head injury) model, grip score 18 hours post-injury. In kind it is in vivo, mice (male CF-1). The following applies: for effectiveness in treatment of CNS trauma/damage (in words): grip score 18 h post trauma, FIGS. 1-8. The source says: Two tests which can be readily performed are observation of grip score and observation of grip time in injured test animals. Another test for agonist activity is for decrease in mortality caused by the CNS injury. Mice can be treated to simulate CNS injury by a variety of methods: they can be deprived of oxygen by administration of KCN (Nauquier, A., et al., Arch. Int. Pharmacodyn., 249:330 (1981)) or by temporary tying-off of the carotid artery (Braughler, J. M. and Lainer, M. J., "The effects of large doses of methylprednisolone on neurologic recovery and survival in the Mongolian gerbil following three hours of unilateral carotid occlusion," CNS Trauma, 3:153-162 (1986)). Alternatively, blows can be administered to the head or the spinal cord of the test animal.
The following protocol was used:
The compound to be tested was weighed and suspended in a polyethylated castor oil solution ("Cremophore") (21% Cremaphore, 3% ethanol in 0.9% saline). The concentration of the solution was then adjusted for administration at a dose of 0.01 cc/gm body weight. For example, for a dose of 10 mg/Kg, the solution was made 1.0 mg/cc, and a 23 g mouse would receive 0.23 cc of this solution. The solution was sonicated for approximately 90 minutes, or until the compound is dissolved.
Male CF-1 mice (15-25 gm) were weighed and marked for identification purposes. Each individual mouse was restrained by grasping the dorsal skin of the neck until the mouse was still. An impounder was used to administer the trauma. The impounder consists of a weight suspended over the animal's head at a height sufficient to produce significant injury when dropped, and a means for immobilizing the animal (in this case, room to hold the animal in place). […] 62:882-887, 883. The mouse was positioned properly under the impounder, and the weight was released from its preset height (11 CM).
Immediately following injury, the mouse was placed under a heat lamp. At various times after injury, the drug was administered intravenously at the specified dose. The time of injury and the time of injection were recorded.
B) Measurement of Grip Score
Each mouse was evaluated 18 hours post-injury for neurological deficit. The delay of 18 hours provided time for any sedative effects of the compound to wear off. It also provided time for healing to occur. Mortality was also noted. A standard grip test, as described in Hall et al., J. Neurosurg. 68:456-461 (1988), was used. The apparatus consisted of a taut string suspended between two uprights, 60 cm in length and 40 cm above a padded table.
(§1) Each mouse was picked up by the tail and placed on the string. […] The tail was then released. Grip score was recorded based on the mouse's performance while on the string. The following criteria were used (taken from Hall, E. D., J. Neurosurg. 62:882-887 (1985)):
C) Statistical Analysis Results of the above test were analyzed for statistical significance using the Mann-Whitney U test. See R. V. Tallarida & R. B. Murray, MANUAL OF PHARMACOLOGIC CALCULATIONS WITH COMPUTER PROGRAMS, Springer-Verlag, N.Y., pp. 57-59 (1981). This test was used to compare each set of grip scores for a particular dose of a particular compound against the grip scores for the control group.

Series [11] deals with peripheral-type BZ receptor. The series is described as follows: Antagonism of Ro5 4864-induced improvement of grip score by PK 14105 following head injury. In kind it is in vivo, mice. The note with it: for GRIP TEST SCORE: tested 1 hour after injury.
Description: Male CF-1 mice (15-25 gm) were weighed and marked for identification purposes. Each individual mouse was restrained by grasping the dorsal skin of the neck until the mouse was still. An impounder was used to administer the trauma. The impounder consists of a weight suspended over the animal's head at a height sufficient to produce significant injury when dropped, and a means for immobilizing the animal (in this case, room to hold the animal in place). An example of such an impounder can be found in Hall, E.D., "High Dose Glucocorticoid Treatment Improves Neurological Recovery in Head Injured Mice," J. Neurosurg. 62:882-887, 883. The mouse was positioned properly under the impounder, and the weight was released from its preset height (11 CM).
as §1
The inhibitory agonist alone does (row 2 as compared to row 1).
^a Animals were administered vehicle or PK 14105 i.v. 30 min prior to
^b Animals were administered vehicle or Ro5 4864 i.v. 5 min after hea
^c Animals were tested 1 hour after headinjury

The target in series [12] is T1, peripheral-type BZ receptors (Rattus norvegicus, UniProt P16257).
T1 construct: displacement of ^3 H-RO5-4864 in brain homogenates; from tissue; host or cells: brain homogenates
The series is described as follows: Competitive binding assay, displacement of 3H-Ro5-4864 in brain homogenates. The source says: Sprengel, R., et al., "Molecular cloning and expression of cDNA encoding a peripheral-type benzodiazepine receptor," J. Biol. Chem., 264:20415-20421 (1989).
Some of these compounds were further tested in in vivo studies.

The conditions of series [13]: in vivo; cited from earlier work. The source holds these as a separate data set.
For series [14] the following is noted: administered post-ischemia in animals; cited from earlier work.
The conditions of series [15]: stroke treatment; cited from earlier work.
The conditions of series [16]: ischemic baboons; cited from earlier work.

Take `CC(=O)Oc1ccccc1C(=O)O` [Aspirin]: the “effect on platelet aggregation” value in series [1] is “inhibit platelet aggregation”.
With `O=C(O)C1CN(CCCP(=O)(O)O)CCN1` (centres unmarked) [CPP], the adverse reactions entry in [2] is “respiratory depression and elevated CO2 level”.
Turning to `O=C(O)[C@H]1CN(C/C=C/P(=O)(O)O)CCN1` [D-CPPene], the “effect on blood pressure” value in series [3] is “induces hypotension”.
Consider `CN1C(=O)CN=C(c2ccccc2)c2cc(Cl)ccc21` [Diazepam, 7-Chloro-1,3-dihydro-1-methyl-5-phenyl-2H-1,4-benzodiazepin-2-one], for which the “effect in cerebral ischemia” value in series [4] was “somewhat effective in treatment of cerebral ischemia”.
With `Fc1ccc(C(c2ccc(F)cc2)N2CCN(C/C=C/c3ccccc3)CC2)cc1` [Flunarizine], the “effect on cerebral blood flow” value in series [5] is reported as “no increase in cerebral blood flow or improvement in cerebral metabolism”.
On to `C[C@]12N[C@H](Cc3ccccc31)c1ccccc12` [MK-801], for which the “effect on blood pressure” value in series [6] and in [3] was “increases blood pressure” in each case. Moreover, the adverse reactions result in series [2] was “respiratory depression and elevated CO2 level; also recorded: behavioral changes, including a psychotic-like response and diminished cognitive and mental status”.
Regarding `COC(=O)C1=C(C)NC(C)=C(C(=O)OC)C1c1ccccc1[N+](=O)[O-]` [Nifedipine], in series [7], the “effect on cerebral blood flow” value was “antagonize cerebral blood flow”.
For `CCCCC[C@H](O)/C=C/[C@@H]1[C@H]2C/C(=C/CCCC(=O)O)O[C@H]2C[C@H]1O` [PGI2, prostaglandin I2], the adverse effects entry in series [8] is recorded as “tendency to precipitate hypotension”. In addition, the half life in series [9] is 3 min.
What is called IC50 is the point on the concentration scale where inhibition reaches its midpoint. On to `CCC(C)N(C)C(=O)c1cc2ccccc2c(-c2cc([N+](=O)[O-])ccc2F)n1` (centres unmarked) [PK 14105, 1-(2-fluoro-5-nitrophenyl)-1-methyl-N(1-methyl-propyl)-3-isoquinoline carboxamide], for which, in [10], the “effectiveness in treatment of CNS trauma/damage (in words)” value was “inactive in treating CNS damage”. In addition, the “functional class at the peripheral-type BZ receptor (in words)” value in series [10] (inferred from binding and lack of grip score effect) was “antagonist to the peripheral-type BZ receptor”. Also, in series [10] (moderate and high doses, FIG. 8), the “grip scores compared with controls (in words)” value was “stay the same as those of the controls”. For the same molecule, the “GRIP TEST SCORE” value in series [11] (10 mg/kg i.v. 30 min preinjury, postinjury vehicle) is 1.40 ± 0.28. Moreover, the “effect of the antagonist on grip score (in words)” value in [11] (antagonist alone) is “no statistically significant effect on grip score post trauma”. The “effect on agonist-induced improvement of grip score (in words)” value in series [11] (antagonist with inhibitory agonist, 1 hour post-trauma) was “prevents the agonist from improving grip score”. In series [12], the “binding affinity to peripheral-type BZ sites (in words)” value was “very strong binding affinity”. Further, the 50% inhibitory concentration (IC50) in series [12] (displacement of 3H-Ro5-4864 in brain homogenates, * data by procedure described herein, read-out: IC50) stood at 4.5 nM.
Regarding `CC(=O)CCCCn1c(=O)c2c(ncn2C)n(C)c1=O` [Pentoxifylline], the “effect on blood viscosity / red blood cell flexibility” value in [13] was “improves the oxygenation of ischemic tissues by decreasing blood viscosity”. The adverse effects result in series [8] is “chest pain, dyspepsia, nausea, vomiting, dizziness, headache, tremor, anxiety, blurred vision, malaise, and others”.
As for `CN1C(=O)CN=C(c2ccc(Cl)cc2)c2cc(Cl)ccc21` [Ro5-4864, 4',7-Dichloro-1,3-dihydro-1-methyl-5-phenyl-2H-1,4-benzodiazepin-2-one], in series [10], the “effectiveness in treatment of CNS trauma/damage (in words)” value is listed as “effective”. Also, the “GRIP TEST SCORE” value was found to be 0.93 ± 0.21 in series [11] (preinjury 10 mg/kg PK 14104 (sic) plus postinjury 0.3 mg/kg Ro5 4864) and 1.84 ± 0.24 in series [11] (preinjury vehicle, 0.3 mg/kg i.v. 5 min after injury, vehicle/vehicle 1.13 ± 0.27, P<0.05).
On to `CN(C)CCCSc1ccccc1NC(=O)/C=C/c1ccccc1` [cinanserin], for which the “effect on neurologic function” value in series [14] is on record as “help preserve neurologic function”.
`C[C@]12CCC(=O)C=C1CC[C@@H]1[C@@H]2C(=O)C[C@@]2(C)[C@H]1CC[C@]2(O)C(=O)CO` [cortisone]: the “effect on neurologic outcome, morbidity or mortality in stroke” value in series [15] is given as “no difference in morbidity or mortality”.
Take `CN1CCC(=C2c3ccccc3C=Cc3ccccc32)CC1` [cyproheptadine]: the “effect on neurologic function” value in series [14] is “help preserve neurologic function”.
Turning to `C[C@@H]1C[C@H]2[C@@H]3CCC4=CC(=O)C=C[C@]4(C)[C@@]3(F)[C@@H](O)C[C@]2(C)[C@@]1(O)C(=O)CO` [dexamethasone], in series [15], the “effect on neurologic outcome, morbidity or mortality in stroke” value is given as “no difference in morbidity or mortality”. The adverse effects result in series [8] is “serious exacerbations of diabetes mellitus”.
For the molecule `COc1ccc2c(c1)c(CC(=O)O)c(C)n2C(=O)c1ccc(Cl)cc1` [indomethacin], the “edema, cerebral blood flow and carbon dioxide reactivity” value in series [16] is “significantly increase edema and decrease cerebral blood flow and carbon dioxide reactivity”. Further, the “effect on platelet aggregation” value in [1] is on record as “inhibit platelet aggregation”.
On to `OC[C@@H](O)[C@@H](O)[C@H](O)[C@H](O)CO` [mannitol], for which the adverse effects entry in [8] was “severe rebound cerebral edema”.
For `O=C1C(CC[S+]([O-])c2ccccc2)C(=O)N(c2ccccc2)N1c1ccccc1` (centres unmarked) [sulfinpyrazone], the “effect on platelet aggregation” value in series [1] was “inhibit platelet aggregation”.
Turning to `Clc1ccccc1CN1CCc2sccc2C1` [ticlopidine], the “effect on platelet aggregation” value in series [1] is “inhibit platelet aggregation”.
On to heparin, for which the adverse effects entry in series [8] is reported as “high risk of brain and/or systemic hemorrhage”.
